Measured values from ChEMBL document CHEMBL2074182, “Influence of antipsychotic, antiemetic, and Ca(2+) channel blocker drugs on the cellular accumulation of the anticancer drug daunorubicin: P-glycoprotein modulation” (J Pharmacol Exp Ther, 2000).
One block for each compound: values may come before it.

Legend:
Assay type in all cases: functional, cell-based
[1] = biological target: T1, ATP-dependent translocase ABCB1 (Homo sapiens, UniProt P08183); test: TP_TRANSPORTER: increase in Rhodamine 123 intracellular accumulation (R123: 150 uM, Promethazine: 20 ug/mL) in MDR1-expressing NIH3T3 cells; conditions: mouse
[2] = biological target: T1, ATP-dependent translocase ABCB1; test: TP_TRANSPORTER: increase in Rhodamine 123 intracellular accumulation (R123: 150 uM, Prochloperazine: 5 ug/mL) in MDR1-expressing NIH3T3 cells; conditions: mouse
[3] = biological target: T1, ATP-dependent translocase ABCB1; test: TP_TRANSPORTER: increase in Rhodamine 123 intracellular accumulation (R123: 150 uM, Chlorpromazine: 2.5 ug/mL) in MDR1-expressing NIH3T3 cells; conditions: mouse
[4] = biological target: T2, MDR1 (P-glycoprotein, ABCB1) (Homo sapiens, UniProt P08183); test: TP_TRANSPORTER: increase in Rhodamine 123 intracellular accumulation (R123: 150 uM, Nicardipine: 2 ug/mL) in MDR1-expressing NIH3T3 cells; conditions: mouse, probe Rhodamine 123 (150 uM)
[5] = biological target: T2, MDR1 (P-glycoprotein, ABCB1); test: TP_TRANSPORTER: increase in Rhodamine 123 intracellular accumulation (R123: 150 uM, Bepridil: 5 ug/mL) in MDR1-expressing NIH3T3 cells; conditions: mouse, probe Rhodamine 123 (150 uM)

T1 sequence (P08183 whole entry): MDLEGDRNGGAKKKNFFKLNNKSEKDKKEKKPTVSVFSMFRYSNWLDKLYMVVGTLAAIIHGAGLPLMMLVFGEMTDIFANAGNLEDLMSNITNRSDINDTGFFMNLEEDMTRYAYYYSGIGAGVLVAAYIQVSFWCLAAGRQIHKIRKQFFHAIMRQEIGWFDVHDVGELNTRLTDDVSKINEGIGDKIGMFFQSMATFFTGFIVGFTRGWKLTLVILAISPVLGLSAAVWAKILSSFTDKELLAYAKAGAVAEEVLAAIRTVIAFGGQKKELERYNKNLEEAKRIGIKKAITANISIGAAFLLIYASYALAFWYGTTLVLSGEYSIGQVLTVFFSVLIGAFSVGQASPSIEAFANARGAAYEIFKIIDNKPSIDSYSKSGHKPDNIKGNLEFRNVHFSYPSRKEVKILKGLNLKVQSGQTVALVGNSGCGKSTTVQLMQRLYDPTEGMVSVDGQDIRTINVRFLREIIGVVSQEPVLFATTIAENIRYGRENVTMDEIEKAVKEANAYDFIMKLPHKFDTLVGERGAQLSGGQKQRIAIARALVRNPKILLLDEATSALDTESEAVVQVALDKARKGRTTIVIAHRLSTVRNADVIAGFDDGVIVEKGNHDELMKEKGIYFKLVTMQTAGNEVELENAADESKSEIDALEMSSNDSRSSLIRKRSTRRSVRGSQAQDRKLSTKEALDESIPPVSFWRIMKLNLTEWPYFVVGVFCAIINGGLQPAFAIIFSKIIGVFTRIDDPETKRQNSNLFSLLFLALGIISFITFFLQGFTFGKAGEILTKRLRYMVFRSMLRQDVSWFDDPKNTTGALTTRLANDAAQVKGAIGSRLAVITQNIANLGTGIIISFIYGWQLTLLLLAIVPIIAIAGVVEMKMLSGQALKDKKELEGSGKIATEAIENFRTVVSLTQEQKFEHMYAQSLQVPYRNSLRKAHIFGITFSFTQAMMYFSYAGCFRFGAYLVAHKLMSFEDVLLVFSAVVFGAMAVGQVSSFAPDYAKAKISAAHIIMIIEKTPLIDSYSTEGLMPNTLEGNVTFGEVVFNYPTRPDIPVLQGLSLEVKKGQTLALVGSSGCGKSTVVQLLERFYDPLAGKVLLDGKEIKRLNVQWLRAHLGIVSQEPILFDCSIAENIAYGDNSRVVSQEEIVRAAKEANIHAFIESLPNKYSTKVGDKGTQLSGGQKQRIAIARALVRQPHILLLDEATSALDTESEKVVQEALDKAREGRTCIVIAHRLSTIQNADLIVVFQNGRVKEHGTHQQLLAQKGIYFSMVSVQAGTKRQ
T2 sequence (P08183 whole entry): as above

Structure (SMILES): CC(CN1c2ccccc2Sc2ccccc21)N(C)C (stereo not given) [PROMETHAZINE]
Inhibition [1]: inhibitor [(at a rough estimate) 80 % inhibition]

Structure (SMILES): CN1CCN(CCCN2c3ccccc3Sc3ccc(Cl)cc32)CC1 [PROCHLORPERAZINE]
Inhibition [2]: inhibitor [(at a rough estimate) 80 % inhibition]

Structure (SMILES): CCCNC(=O)NS(=O)(=O)c1ccc(Cl)cc1 [CHLORPROPAMIDE]
Inhibition [3]: inhibitor [at a rough estimate 90 % inhibition]

inhibition at 2 ug/mL [4]: 100%
Structure (SMILES): COC(=O)C1=C(C)NC(C)=C(C(=O)OCCN(C)Cc2ccccc2)C1c1cccc([N+](=O)[O-])c1 (stereo not given) [NICARDIPINE]

inhibition at 5 ug/mL [5]: 100%
Structure (SMILES): CC(C)COCC(CN(Cc1ccccc1)c1ccccc1)N1CCCC1 (stereo not given) [BEPRIDIL]
